According to PMC12693167, “Design, Synthesis and Anticancer Activity of 6-Substituted-1-(3,4,5-trimethoxyphenyl)-1H-indole Against Tubulin Polymerisation” (Molecules, 2025):
“And” between values parts separate entries of the source, which are not always exact repeats. Equal values may be shown once.

Experiments:
[1] = test system: B16F10 melanoma tumors in BALB/c mice; assay: In vivo antitumor efficacy, subcutaneous B16-F10 melanoma model; set-up: species or system mouse; details: 14 days, from tumor weight
Description: The in vivo antitumor activity of compound 3g was evaluated using a mouse melanoma tumor model in BALB/c mice. Tumors were established by subcutaneous inoculation of B16F10 cells, and treatment was initiated when tumors reached a measurable size. Mice were administered vehicle control, paclitaxel (PTX, 10 mg/kg), or compound 3g (20 and 50 mg/kg) via intraperitoneal injection once daily for 14 consecutive days.
All animal procedures were approved by the Animal Ethics Committee of the Naval Medical University (permit number: EC11-055). Male BALB/c mice (6–8 weeks old, average initial body weight approximately 18–20 g) were purchased from Shanghai SLAC Laboratory Animal Co., Ltd. The inhibitory effect of compound 3g was evaluated using a subcutaneous B16-F10 melanoma xenograft model. Log-phase B16F10 cells were suspended in PBS and subcutaneously injected into mice (200 μL containing 8 × 10^5 cells per mouse) to establish tumors. Mice were randomly divided into control and treatment groups (n = 8). Compound 3g and paclitaxel were dissolved in a vehicle consisting of DMSO:PEG:Tween-80:saline (v/v/v/v, 5:35:10:50) to the desired concentrations. Treatments (paclitaxel, 10 mg/kg; compound 3g, 20 and 50 mg/kg, doses calculated on a body-weight basis) and vehicle were administered once daily via intraperitoneal injection for 14 consecutive days. Body weights were monitored throughout the study to assess acute toxicity. Tumor volumes were measured using calipers and calculated with the formula: a × b^2 × 0.5, where a and b represent the larger and smaller tumor diameters, respectively. On day 14, mice were sacrificed and tumors were excised and weighed. […] Major organs (liver and kidneys) were collected, fixed in 4% paraformaldehyde, processed into paraffin sections, stained with hematoxylin and eosin (H&E), and examined microscopically.
Murine melanoma B16-F10 xenograft tumors were established in mice, which were then administered vehicle, PTX (10 mg/kg per day), compound 3g (20 mg/kg per day), and compound 3g (50 mg/kg per day) for 14 days. […]

[2] = test system: microtubule network in MCF-7 cells; assay: Immunofluorescence staining of microtubules; assay type: cell-based, human; details: 0.1, 1 and 10 μM, 24 h
Description: Given the potent in vitro antiproliferative activity of compound 3g, its effects on microtubule organization were further investigated using immunofluorescence staining in MCF-7 cells. […] The network appeared disassembled and fragmented in a dose-dependent manner, indicating significant cytoskeletal destabilization.
MCF-7 cells were seeded on glass coverslips in 24-well plates and then treated with vehicle control 0.1% DMSO, 3g (0.1, 1, 10 μM) for 24 h. The cells were fixed with 4% paraformaldehyde and then permeabilized with PBS containing 0.2% Triton X-100. After blocking for 30 min by adding 100 μL of goat serum albumin at room temperature, cells were incubated with a β-tubulin polyclonal antibody (Proteintech, Wuhan Sanying Biotechnology, Wuhan, China, Cat# 10094-1-AP, 1:500 dilution) at 37 °C for 12 h. Then, the cells were washed three times with PBS and incubated with a secondary antibody (Beyotime, Shanghai, China, Cat# A0516, 1:500 dilution) for 1 h at room temperature. Nuclei were labeled with 4,6-diamidino-2-phenylindole (DAPI). Cells were finally visualized using a fluorescence microscope (Nikon TI2-E+A1R, Nikon Corporation, Tokyo, Japan).
Figure 5 Effects of compound 3g on microtubules. MCF-7 cells were treated with vehicle control 0.1% DMSO, compound 3g (0.1μM, 1μM, and 10 μM for 24 h). […]

[3] = target: T1, purified porcine brain tubulin (Sus scrofa, UniProt P02554); assay: Biolayer interferometry (BLI) binding to tubulin; details: immobilized tubulin, 1:1 binding model, mean ± SD, triplicate
T1 construct: purified porcine brain tubulin; from tissue; host or cells: porcine brain
T1 sequence (P02554 whole entry): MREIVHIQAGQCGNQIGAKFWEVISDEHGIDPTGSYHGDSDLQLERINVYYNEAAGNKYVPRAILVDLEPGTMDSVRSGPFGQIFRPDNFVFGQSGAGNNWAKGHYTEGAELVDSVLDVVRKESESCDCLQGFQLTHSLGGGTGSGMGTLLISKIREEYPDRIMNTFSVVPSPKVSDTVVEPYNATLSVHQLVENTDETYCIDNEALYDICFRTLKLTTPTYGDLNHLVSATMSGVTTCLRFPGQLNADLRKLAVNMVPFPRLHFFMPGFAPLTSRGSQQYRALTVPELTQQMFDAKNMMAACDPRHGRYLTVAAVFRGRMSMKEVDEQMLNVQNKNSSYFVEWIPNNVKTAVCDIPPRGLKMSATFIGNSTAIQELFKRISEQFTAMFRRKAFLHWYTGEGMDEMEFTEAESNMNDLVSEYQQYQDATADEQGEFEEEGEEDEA
T1 sequence (P02550 whole entry partner): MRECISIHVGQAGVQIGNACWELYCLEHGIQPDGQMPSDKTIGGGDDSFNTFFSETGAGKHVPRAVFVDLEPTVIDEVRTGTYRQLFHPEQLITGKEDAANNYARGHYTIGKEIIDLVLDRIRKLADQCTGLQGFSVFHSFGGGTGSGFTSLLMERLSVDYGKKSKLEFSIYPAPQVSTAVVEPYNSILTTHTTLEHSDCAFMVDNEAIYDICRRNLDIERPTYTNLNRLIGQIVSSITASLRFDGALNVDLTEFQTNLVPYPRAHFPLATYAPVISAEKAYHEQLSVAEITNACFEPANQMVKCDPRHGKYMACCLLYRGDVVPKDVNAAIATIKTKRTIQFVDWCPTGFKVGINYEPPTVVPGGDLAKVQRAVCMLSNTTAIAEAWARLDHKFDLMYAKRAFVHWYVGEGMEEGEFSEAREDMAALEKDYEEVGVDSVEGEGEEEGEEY
Description: To detect the direct interaction between the synthesized compounds and tubulin, biolayer interferometry (BLI) experiments were performed using purified porcine brain tubulin immobilized on Super Streptavidin (SSA) biosensor [30]. […] Association and dissociation kinetics were monitored in real time, and equilibrium dissociation constants (KD) were determined by global fitting of the sensorgrams to a 1:1 binding model. All measurements were conducted in triplicate, and results are reported as mean ± SD.
BLI assays were performed on an Octet RED96 instrument (FortéBio, Pall Life Sciences, Menlo Park, CA, USA) at 25 °C in PBS buffer supplemented with 0.02% (v/v) Tween-20 as the running buffer. Biotinylated tubulin proteins (3 μg/mL) were immobilized onto Super Streptavidin (SSA) biosensors. Association and dissociation were monitored for 60 s each. […] Reference subtraction was performed using sensors incubated in running buffer without protein loading to correct for baseline drift. Data were analyzed using Octet Data Analysis software (version 9.0), and equilibrium dissociation constants (KD) were determined by fitting the curves to a 1:1 binding model. All measurements were performed in triplicate, and results are reported as mean ± SD.
BLI assays were performed on an Octet RED96 instrument (FortéBio, Pall Life Sciences) at 25 °C in PBS buffer supplemented with 0.02% (v/v) Tween-20 as the running buffer. Biotinylated tubulin proteins (3 μg/mL) were immobilized onto Super Streptavidin (SSA) biosensors. Association and dissociation were monitored for 60 s […]
Reference subtraction was performed using sensors incubated in running buffer without protein loading to correct for baseline drift. Data were analyzed using Octet Data Analysis software (version 9.0), and equilibrium dissociation constants (KD) were determined by fitting the curves to a 1:1 binding model. All measurements were performed in triplicate, and results are reported as mean ± SD.

[4] = target: T2, Porcine brain tubulin protein (Sus scrofa, UniProt P02554); assay: In vitro tubulin polymerization assay; assay type: biochemical
T2 construct: Porcine brain tubulin protein was dissolved in EM buffer; from tissue; host or cells: porcine brain
T2 sequence (P02554 whole entry): as the sequence (P02554 whole entry) above
T2 sequence (P02550 whole entry partner): as the sequence (P02550 whole entry partner) above
Description: The ability of compound 3g to disrupt microtubule dynamics was assessed using an in vitro tubulin polymerization assay.
Porcine brain tubulin protein was dissolved in EM buffer containing 5% glycerol (80 mM PIPES, 2 mM GTP, 2 mM MgCl2, and 0.5 mM EGTA, pH 6.9). Compounds were diluted in EM buffer to final concentrations of 50, 25, 10, 5, and 2.5 μM and added to a pre-warmed 384-well plate, followed by pre-incubation at 37 °C. Subsequently, 14 μL of the tubulin-GTP mixture was added to each well containing the test compounds. Tubulin polymerization was monitored by measuring absorbance at 340 nm every minute for 60 min. […] Each assay was performed in triplicate.
Absorbance at 340 nm was determined every 1 min.

COc1cc(-n2ccc3ccc(-c4ccc(C)c(C#N)c4)cc32)cc(OC)c1OC [3g, 2-methyl-5-(1-(3,4,5-trimethoxyphenyl)-1H-indol-6-yl)benzonitrile]
tumor growth inhibition (TGI) ([1]; 20 mg/kg i.p. once daily): 23.3% and 23.34% | tumor growth inhibition (TGI) ([1]; 50 mg/kg i.p. once daily): 44.2% and 44.18% | microtubule architecture [2]: progressive disruption | KD [3]: low micromolar range | Kd [3]: 13 ± 1.17 µM | effect on tubulin assembly ([4]; 50 μM): markedly suppressed tubulin assembly | effect on tubulin polymerization ([4]; 2.5–50 μM, absorbance at 340 nm): inhibited tubulin polymerization in a concentration-dependent manner
